Source: patent US20080287430A1, “Furan Compounds Useful As Ep1 Receptor Antagonists” (priority 2005, published 2008)
Counter-ions that a name gives are not always drawn.

Molecular target: T1, human EP1 receptor (Homo sapiens, UniProt P34995)
T1 construct: expressed in transfected cells; host or cells: CHO-K1
T1 sequence (P34995 1-402): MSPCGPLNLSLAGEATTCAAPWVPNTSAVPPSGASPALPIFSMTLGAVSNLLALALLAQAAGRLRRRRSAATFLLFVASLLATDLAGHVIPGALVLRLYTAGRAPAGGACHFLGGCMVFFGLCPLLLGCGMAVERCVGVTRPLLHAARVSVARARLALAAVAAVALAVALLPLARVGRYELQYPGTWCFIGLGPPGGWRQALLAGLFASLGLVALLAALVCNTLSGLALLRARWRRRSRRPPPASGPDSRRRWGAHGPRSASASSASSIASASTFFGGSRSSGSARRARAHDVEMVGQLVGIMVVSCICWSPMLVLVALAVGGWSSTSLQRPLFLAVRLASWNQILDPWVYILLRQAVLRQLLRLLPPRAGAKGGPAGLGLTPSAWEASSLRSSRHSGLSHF
Test: human EP1 calcium mobilisation assay
Assay type: cell-based
Settings: human EP1, PGE2-induced calcium mobilisation in CHO-K1 cells; free bases or sodium salts; averages of a number of experiments; read-out: functional pKi value (converted)
Experimental: Briefly, the antagonist properties of compounds are assessed by their ability to inhibit the mobilisation of intracellular calcium ([Ca^2+]i) in response to activation of EP1 or EP3 receptors by the natural agonist hormone prostaglandin E2 (PGE2). Increasing concentrations of antagonist reduce the amount of calcium that a given concentration of PGE2 can mobilise. The net effect is to displace the PGE2 concentration-effect curve to higher concentrations of PGE2. The amount of calcium produced is assessed using a calcium-sensitive fluorescent dye such as Fluo-4, AM and a suitable instrument such as a Fluorimetric Imaging Plate Reader (FLIPR). Increasing amounts of [Ca^2+]i produced by receptor activation increase the amount of fluorescence produced by the dye and give rise to an increasing signal. The signal may be detected using the FLIPR instrument and the data generated may be analysed with suitable curve-fitting software.
The human EP1 or EP3 calcium mobilisation assay (hereafter referred to as ‘the calcium assay’) utilises Chinese hamster ovary-K1(CHO-K1) cells into which a stable (pCIN; BioTechniques 20 (1996): 102-110) vector containing either EP1 or EP3 cDNA has previously been transfected. Cells are cultured in suitable flasks containing culture medium such as DMEM:F-12 supplemented with 10% v/v foetal calf serum, 2 mM L-glutamine, 0.25 mg/ml geneticin, 100 μM flurbiprofen and 10 μg/ml puromycin.
For assay, cells are harvested using a proprietary reagent that dislodges cells such as Versene. Cells are re-suspended in a suitable quantity of fresh culture media for introduction into a 384-well plate. Following incubation for 24 hours at 37° C. the culture media is replaced with a medium containing Fluo-4 and the detergent pluronic acid, and a further incubation takes place. Concentrations of compounds are then added to the plate in order to construct concentration-effect curves. This may be performed on the FLIPR in order to assess the agonist properties of the compounds. Concentrations of PGE2 are then added to the plate in order to assess the antagonist properties of the compounds.
The data so generated may be analysed by means of a computerised curve-fitting routine. The concentration of compound that elicits a half-maximal inhibition of the calcium mobilisation induced by PGE2 (pIC50) may then be estimated.

Compound	Ki [µM]
CC(C)COc1ccc(Cl)cc1Cc1ccc(-c2nc3cc(F)ccc3[nH]2)o1 [Example 122, 2-[5-({5-Chloro-2-[(2-methyipropyl)oxy]phenyl}methyl)-2-furanyl]-5-fluoro-1H-benzimidazole]	< 1
Cc1ccc2[nH]c(-c3ccc(Cc4cc(Cl)ccc4OCC(C)C)o3)nc2c1 [Example 125, 2-[5-({5-Chloro-2-[(2-methylpropyl)oxy]phenyl}-methyl)-2-furanyl]-5-methyl-1H-benzimidazole]	< 1
O=C(Nc1ccccc1)c1ccc(Cc2cc(Cl)ccc2OCc2ccccc2)o1 [Example 70, 5-({5-Chloro-2-[(phenylmethyl)oxy]-phenyl}methyl)-N-phenyl-2-furancarboxamide]	< 1
Cc1cc(C(=O)O)oc1Cc1cc(Cl)ccc1OCC(C)C [Example 14, Sodium 5-({5-chloro-2-[(2-methylpropyl)oxy]phenyl}methyl)-4-methyl-2-furancarboxylate]	≤ 0.01
O=C(NCc1ccccn1)c1ccc(Cc2cc(Cl)ccc2OCc2ccccc2)o1 [Example 53, 5-({5-Chloro-2-[(phenylmethyl)oxy]phenyl}methyl)-N-(2-pyridinylmethyl)-2-furancarboxamide]	≤ 0.01
CC(C)COc1ccc(Cl)cc1Cc1ccc(C(=O)NC(C)C)o1 [Example 55, 5-({5-Chloro-2-[(2-methylpropyl)oxy]phenyl}methyl)-N-(1-methylethyl)-2-furancarboxamide]	< 1
CCCOc1ccc(Cl)cc1Cc1ccc(C(=O)O)o1 [Example 1, Sodium 5-{[5-chloro-2-(propyloxy)phenyl]methyl}-2-furancarboxylate]	< 1
CC(C)COc1ccc(Cl)cc1Cc1ccc(C(=O)NCc2c(F)cccc2F)o1 [Example 43, 5-({5-Chloro-2-[(2-methylpropyl)oxy]phenyl}methyl)-N-[(2,6-difluorophenyl)methyl]-2-furancarboxamide]	< 1
Clc1ccc(OCc2ccccc2)c(Cc2ccc(-c3nc4ccc(CN5CCCCC5)cc4[nH]3)o2)c1 [Example 141, 2-[5-({5-Chloro-2-[(phenylmethyl)oxy]-phenyl}methyl)-2-furanyl]-5-(1-piperidinylmethyl)-1H-benzimidazoledihydrochloride]	< 1
O=C(O)c1ccc(Cc2cc(Cl)ccc2OCc2cccnc2)o1 [Example 27, Sodium 5-({5-chloro-2-[(3-pyridinylmethyl)oxy]phenyl}methyl)-2-furancarboxylate]	< 1
O=C(Nc1c(F)cccc1F)c1ccc(Cc2cc(Cl)ccc2OCc2ccc(F)c(F)c2)o1 [Example 86, 5-[(5-Chloro-2-{[(3,4-difluorophenyl)methyl]oxy}-phenyl)methyl]-N-(2,6-difluorophenyl)-2-furancarboxamide]	< 1
CC(C)COc1ccc(Cl)cc1Cc1ccc(C(=O)NCc2ccc(F)cc2)o1 [Example 37]	< 1
O=C(Nc1c(F)cccc1F)c1ccc(Cc2cc(Cl)ccc2OCc2ccc(F)cc2)o1 [Example 82, 5-[(5-Chloro-2-{[(4-fluorophenyl)methyl]oxy}-phenyl)methyl]-N-(2,6-difluorophenyl)-2-furancarboxamide]	< 1
O=C(Nc1c(F)cccc1F)c1ccc(Cc2cc(Cl)ccc2OCc2ccccn2)o1 [Example 91, 5-({5-Chloro-2-[(2-pyridinylmethyl)oxy]phenyl}methyl)-N-(2,6-difluorophenyl)-2-furancarboxamide]	< 1
CC(C)COc1ccc(Cl)cc1Cc1ccc(-c2nc3ccc(Br)cc3[nH]2)o1 [Example 110, 5-Bromo-2-[5-({5-chloro-2-[(2-methylpropyl)oxy]-phenyl}methyl)-2-furanyl]-1H-benzimidazolehydrochloride]	> 1
CC(C)COc1ccc(Cl)cc1Cc1ccc(-c2nc3cnc4ccccc4c3[nH]2)o1 [Example 118, 2-[5-({5-Chloro-2-[(2-methylpropyl)oxy]phenyl}-methyl)-2-furanyl]-1H-imidazo[4,5-c]quinoline]	< 1
Clc1ccc(OCc2ccccc2)c(Cc2ccc(-c3nc4ccc(CN5CCCC5)cc4[nH]3)o2)c1 [Example 140, 2-[5-({5-Chloro-2-[(phenylmethyl)oxy]-phenyl}methyl)-2-furanyl]-5-(1-pyrrolidinylmethyl)-1H-benzimidazoledihydrochloride]	< 1
O=C(Nc1c(F)cccc1F)c1ccc(Cc2cc(Cl)ccc2OCc2ccc(Cl)cc2)o1 [Example 90, 5-[(5-Chloro-2-{[(4-chlorophenyl)methyl]oxy}-phenyl)methyl]-N-(2,6-difluorophenyl)-2-furancarboxamide]	< 1
CC(C)COc1ccc(Cl)cc1Cc1ccc(-c2nc3cc(CCN(C)C)ccc3[nH]2)o1 [Example 163, (2-{2-[5-({5-Chloro-2-[(2-methylpropyl)oxy]-phenyl}methyl)-2-furanyl]-1H-benzimidazol-5-yl}ethyl)dimethylaminedihydrochloride]	< 1
NC(=O)c1ccc(Cc2cc(Cl)ccc2OCc2ccccc2)o1 [Example 78, 5-({5-Chloro-2-[(phenylmethyl)oxy]-phenyl}methyl)-2-furancarboxamide]	< 1
CC(C)COc1ccc(Cl)cc1Cc1ccc(C(=O)NCc2ccccn2)o1 [Example 58, 5-({5-Chloro-2-[(2-methylpropyl)oxy]-phenyl}methyl)-N-(2-pyridinylmethyl)-2-furancarboxamide]	< 1
CC(C)COc1ccc(Cl)cc1Cc1ccc(-c2nc3ccc(CN(C)CC4CCOCC4)cc3[nH]2)o1 [Example 152, ({2-[5-({5-Chloro-2-[(2-methylpropyl)oxy]-phenyl}methyl)-2-furanyl]-1H-benzimidazol-5-yl}methyl)methyl(tetrahydro-2H-pyran-4-ylmethyl)aminedihydrochloride]	< 1
CCC(CC)COc1ccc(Cl)cc1Cc1ccc(C(=O)Nc2c(F)cccc2F)o1 [Example 97, 5-({5-Chloro-2-[(2-ethylbutyl)oxy]phenyl}meth-yl)-N-(2,6-difluorophenyl)-2-furancarboxamide]	< 1
CN(C)Cc1ccc2nc(-c3ccc(Cc4cc(Cl)ccc4OCc4ccccc4)o3)[nH]c2c1 [Example 138, ({2-[5-({5-Chloro-2-[(phenylmethyl)oxy]phenyl}methyl)-2-furanyl]-1H-benzimidazol-5-yl}methyl)dimethylamine dihydrochloride]	< 1
CCN(CC)Cc1ccc2nc(-c3ccc(Cc4cc(Cl)ccc4OCC(C)C)o3)[nH]c2c1 [Example 150, N-({2-[5-({5-Chloro-2-[(2-methylpropyl)oxy]-phenyl}methyl)-2-furanyl]-1H-benzimidazol-5-yl}methyl)-N-ethylethanaminedihydrochloride]	< 1
Cc1cc(C(=O)NCc2ccccc2)oc1Cc1cc(Cl)ccc1OCC(C)C [Example 32, 5-({5-Chloro-2-[(2-methylpropyl)oxy]phenyl}methyl)-4-methyl-N-(phenylmethyl)-2-furancarboxamide]	< 1
CC(C)COc1ccc(Cl)cc1Cc1ccc(C(=O)Nc2c(F)cccc2F)o1 [Example 80, 5-({5-Chloro-2-[(2-methylpropyl)oxy]-phenyl}methyl)-N-(2,6-difluorophenyl)-2-furancarboxamide]	< 1
CC(C)COc1ccc(Cl)cc1Cc1ccc(C(=O)NCc2ccc(C#N)cc2)o1 [Example 42, 5-({5-Chloro-2-[(2-methylpropyl)oxy]phenyl}methyl)-N-[(4-cyanophenyl)methyl]-2-furancarboxamide]	< 1
O=C(Nc1ccccc1F)c1ccc(Cc2cc(Cl)ccc2OCc2ccccc2)o1 [Example 69, 5-({5-Chloro-2-[(phenylmethyl)oxy]-phenyl}methyl)-N-(2-fluorophenyl)-2-furancarboxamide]	< 1
CCCOc1ccc(Cl)cc1Cc1ccc(C(=O)Nc2c(F)cccc2F)o1 [Example 93, 5-{[5-Chloro-2-(propyloxy)phenyl]methyl}-N-(2,6-difluorophenyl)-2-furancarboxamide]	< 1
